Columns and labels:
Format in all cases: in vivo
ECHCG [1] = experiment: Pre-emergence biological efficacy; settings: Echinochloa crus-galli, 312 h, evaluated after 13 days, read-out: damage to plant (100=total damage to plant; 0=no damage to plant), ECHCG
Summary of the method: (§1)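 Pre-emergence pot test: seeds sown in standard soil, grown one day in glasshouse (24/16 °C day/night, 14 h light, 65% humidity), then sprayed with compound formulated in acetone/water (50:50) with 0.5% Tween 20. Damage scored after 13 days on 0–100 scale (100 = total damage).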

IPOHE [2] = experiment: Pre-emergence biological efficacy; settings: Ipomoea hederacea, 312 h, evaluated after 13 days, read-out: damage to plant (100=total damage to plant; 0=no damage to plant), IPOHE
Summary of the method: as §1

SETFA [3] = experiment: Pre-emergence biological efficacy; settings: Setaria faberi, 312 h, evaluated after 13 days, read-out: damage to plant (100=total damage to plant; 0=no damage to plant), SETFA
Summary of the method: as §1

AMAPA [4] = experiment: Pre-emergence biological efficacy; settings: 312 h, evaluated after 13 days, read-out: damage to plant (100=total damage to plant; 0=no damage to plant), AMAPA
Summary of the method: as §1

EPHHL [5] = experiment: Pre-emergence biological efficacy; settings: 312 h, evaluated after 13 days, read-out: damage to plant (100=total damage to plant; 0=no damage to plant), EPHHL
Summary of the method: as §1

LOLPE [6] = experiment: Pre-emergence biological efficacy; settings: 312 h, evaluated after 13 days, read-out: damage to plant (100=total damage to plant; 0=no damage to plant), LOLPE
Summary of the method: as §1

ECHCG [7] = experiment: Post-emergence biological efficacy; settings: Echinochloa crus-galli, 312 h, evaluated after 13 days, read-out: damage to plant (100=total damage to plant; 0=no damage to plant), ECHCG
Summary of the method: (§2)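 Spray of 8-day pot seedlings, acetone/water 50:50, 0.5% Tween 20; 0–100 damage rating at 13 days.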

DIGSA = experiment: Post-emergence biological efficacy; settings: Digitaria sanguinalis, 312 h, evaluated after 13 days, read-out: damage to plant (100=total damage to plant; 0=no damage to plant), DIGSA
Summary of the method: as §2

IPOHE [8] = experiment: Post-emergence biological efficacy; settings: Ipomoea hederacea, 312 h, evaluated after 13 days, read-out: damage to plant (100=total damage to plant; 0=no damage to plant), IPOHE
Summary of the method: as §2

CHEAL = experiment: Post-emergence biological efficacy; settings: Chenopodium album, 312 h, evaluated after 13 days, read-out: damage to plant (100=total damage to plant; 0=no damage to plant), CHEAL
Summary of the method: as §2

ELEIN = experiment: Post-emergence biological efficacy; settings: 312 h, evaluated after 13 days, read-out: damage to plant (100=total damage to plant; 0=no damage to plant), ELEIN
Summary of the method: as §2

SETFA [9] = experiment: Post-emergence biological efficacy; settings: Setaria faberi, 312 h, evaluated after 13 days, read-out: damage to plant (100=total damage to plant; 0=no damage to plant), SETFA
Summary of the method: as §2

AMAPA [10] = experiment: Post-emergence biological efficacy; settings: 312 h, evaluated after 13 days, read-out: damage to plant (100=total damage to plant; 0=no damage to plant), AMAPA
Summary of the method: as §2

EPHHL [11] = experiment: Post-emergence biological efficacy; settings: 312 h, evaluated after 13 days, read-out: damage to plant (100=total damage to plant; 0=no damage to plant), EPHHL
Summary of the method: as §2

LOLPE [12] = experiment: Post-emergence biological efficacy; settings: 312 h, evaluated after 13 days, read-out: damage to plant (100=total damage to plant; 0=no damage to plant), LOLPE
Summary of the method: as §2

Cn1c(=S)n(C)c(=O)n(-c2cc(C3=NOC(C)(C(=O)NS(C)(=O)=O)C3)c(Cl)cc2F)c1=O (stereo not drawn) [Compound 284, 3-[2-chloro-5-(3,5-dimethyl-2,6-dioxo-4-thioxo-1,3,5-triazinan-1-yl)-4-fluoro-phenyl]-5-methyl-N-methylsulfonyl-4H-isoxazole-5-carboxamide]
pest or weed control at 250 g/ha (ECHCG [1]): 30%
pest or weed control at 250 g/ha (IPOHE [2]): 100%
pest or weed control at 250 g/ha (SETFA [3]): 70%
pest or weed control at 250 g/ha (AMAPA [4]): 100%
pest or weed control at 250 g/ha (EPHHL [5]): 100%
pest or weed control at 250 g/ha (LOLPE [6]): 40%
pest or weed control at 250 g/ha (ECHCG [7]): 100%
pest or weed control at 250 g/ha (DIGSA): 100%
pest or weed control at 250 g/ha (IPOHE [8]): 100%
pest or weed control at 250 g/ha (CHEAL): 100%
pest or weed control at 250 g/ha (ELEIN): 100%
pest or weed control at 250 g/ha (SETFA [9]): 100%
pest or weed control at 250 g/ha (AMAPA [10]): 100%
pest or weed control at 250 g/ha (EPHHL [11]): 90%
pest or weed control at 250 g/ha (LOLPE [12]): 80%

CCOC(=O)C1(C)CC(c2cc(-n3c(=O)n(C)c(=S)n(C)c3=O)c(Cl)cc2Cl)=NO1 (stereo not drawn) [Compound 58, Ethyl 3-[2,4-dichloro-5-(3,5-dimethyl-2,6-dioxo-4-thioxo-1,3,5-triazinan-1-yl)phenyl]-5-methyl-4H-isoxazole-5-carboxylate]
pest or weed control at 250 g/ha (ECHCG [1]): 0%
pest or weed control at 250 g/ha (IPOHE [2]): 60%
pest or weed control at 250 g/ha (SETFA [3]): 0%
pest or weed control at 250 g/ha (AMAPA [4]): 90%
pest or weed control at 250 g/ha (EPHHL [5]): 0%
pest or weed control at 250 g/ha (LOLPE [6]): 0%
pest or weed control at 250 g/ha (ECHCG [7]): 90%
pest or weed control at 250 g/ha (DIGSA): 80%
pest or weed control at 250 g/ha (IPOHE [8]): 100%
pest or weed control at 250 g/ha (CHEAL): 90%
pest or weed control at 250 g/ha (ELEIN): 90%
pest or weed control at 250 g/ha (SETFA [9]): 90%
pest or weed control at 250 g/ha (AMAPA [10]): 90%
pest or weed control at 250 g/ha (EPHHL [11]): 70%
pest or weed control at 250 g/ha (LOLPE [12]): 30%

Cn1c(=S)n(C)c(=O)n(-c2cc(C3=NOC(C)(C(=O)O)C3)c(Cl)cc2Cl)c1=O (stereo not drawn) [Compound 56, 3-[2,4-dichloro-5-(3,5-dimethyl-2,6-dioxo-4-thioxo-1,3,5-triazinan-1-yl)-phenyl]-5-methyl-4H-isoxazole-5-carboxylic acid]
pest or weed control at 250 g/ha (ECHCG [1]): 0%
pest or weed control at 250 g/ha (IPOHE [2]): 30%
pest or weed control at 250 g/ha (SETFA [3]): 10%
pest or weed control at 250 g/ha (AMAPA [4]): 90%
pest or weed control at 250 g/ha (EPHHL [5]): 10%
pest or weed control at 250 g/ha (LOLPE [6]): 10%
pest or weed control at 250 g/ha (ECHCG [7]): 90%
pest or weed control at 250 g/ha (DIGSA): 80%
pest or weed control at 250 g/ha (IPOHE [8]): 90%
pest or weed control at 250 g/ha (CHEAL): 90%
pest or weed control at 250 g/ha (ELEIN): 80%
pest or weed control at 250 g/ha (SETFA [9]): 90%
pest or weed control at 250 g/ha (AMAPA [10]): 100%
pest or weed control at 250 g/ha (EPHHL [11]): 80%
pest or weed control at 250 g/ha (LOLPE [12]): 30%

— patent US12202821B2, “Herbicidal compounds” (SYNGENTA CROP PROTECTION AG, priority 2019, dated 2025)
